Reference: article PMC2191575 (The Journal of Experimental Medicine, 1994)

Columns and labels:
[1] = system: chimeric human/mouse MHC class II molecules; format: binding
[2] = system: chimeric MHC class II molecules on splenic B cells; format: cell-based, mouse; conditions: overnight incubation of splenic B cells with recombinant IL-4; data not shown

Row | binding to chimeric MHC class II molecules [1] | Molecule | cell surface level of chimeric MHC class II molecules [2]
1 | Binding was not observed | OVA (323-339): a peptide that does not bind to DR4Dw4 (ISQAVHAAHAEINEAGR; UniProt P01012 324-340, looked up, fragment) | 
2 | Specific binding was also observed | myelin basic protein (90-102): DR-restricted synthetic peptide (HLIRLFSRDAPGR; UniProt P02686 90-102, looked up, fragment) | 
3 |  | recombinant IL-4: recombinant IL-4 (protein, UniProt P07750 21-140, looked up) Interleukin-4: HIHGCDKNHLREIIGILNEVTGEGTPCTEMDVPNVLTATKNTTESELVCRASKVLRIFYLKHGKTPCLKKNSSVLMELQRLFRAFRCLDSSISCTMNESKSTSLKDFLESLKSIMQMDYS | increased by three- to fourfold
